These results are taken from patent US10821096B1, “Compounds for inhibiting NS3 and compositions containing the inhibited protein” (priority 2019, dated 2020).

Test [1] addresses T1, NS3 (Hepatitis C virus genotype 4a, UniProt O39929, A1087S/A1113S/A1121T/A1128S/I1140V/I1160T/I1179L/R1118K/R1176A/S1127A).
T1 construct: NS3 protease domain 1-181 aa+N-terminal T7 tag and C-terminal His tag; T7 tag (N); made in house; host or cells: E. coli Rosette (DE3) pLysS, vector pET-3a
As to the kind of experiment: Enzyme inhibition assay (SensoLyte-520 HCV protease assay kit, FRET peptide). The class given is biochemical, HCV genotype 4a. The conditions noted are these: MOC-23 at 6.3 μM, NS3 4.0 μM, 5-FAM/QXL520 FRET peptide. The method, then:
The assay was performed using SensoLyte-520® HCV protease assay kit Fluorometric® (Anaspec, Fremont, Calif., USA) according to a modified procedure to suit the purpose of determination of allosteric inhibition. NS3 (4.0 μM) was mixed with MOC-23 (6.3 μM) for 15 minutes. Afterwards, 5-FAM/QXL™520 fluorescence resonance energy transfer (FRET) peptide was added as instructed by the assay kit manual. The sequence of this FRET peptide (5-FAM-SLGRKIQIQ) is derived from the cleavage site of NS4A/NS4B. In the FRET peptide, the fluorescence of 5-FAM is quenched by QXL™520. Upon cleavage into two separate fragments by HCV NS3/4A protease, the fluorescence of 5-FAM is recovered, and can be monitored at 490 nm/520 nm (excitation/emission). Controls included buffer, compound, compound+NS3, NS3+NS4A and FRET peptide separately. All test wells and controls were repeated in triplicates at the same 96-well plate.

The target in test [2] is T1, NS3. In words: Binding and competition assay (fluorescence anisotropy, displacement of FITC-NS4A from NS3). Also noted: species or system HCV genotype 4a. The conditions noted are these: for binding affinity (in words): fluorescence anisotropy competition with FITC-NS4A. The method, then: Binding buffer (20 mM HEPES, 10 mM DTT, 200 mM NaCl, pH 7.6), a mixture of NS3 (1.8 μM) and FITC-NS4A ([…]) at the calculated affinity constant concentration were placed in a 96-well plate as binding test solution. A serial dilution of MOC compounds (dissolved in 1.5% DMSO in binding buffer) (1/2 dilution starting from 150 μM to 0.292 μM) was mixed gently with the binding text solution for 60 minutes in the dark. The dissociation constant was calculated according to the recommended equation embedded in GraphPad Prism v8.
The binding affinity test was performed using fluorescence anisotropy technique. In this test, maximum fluorescence was first determined at optimal ratio of NS3 (1.8 μM) and FITC-NS4A (0.1 μM). Compounds that compete with NS4A should be able to decrease the fluorescence of this mixture because they prevent the binding to occur and it should be concentration-dependent. […] The reproducibility was checked using another batch of the express NS3 protein following the same procedure and the value was calculated=7.815±1.014 μM. […] Therefore, compound MOC-23 was tested for its ability to inhibit the NS3 enzyme.
In general terms: Fluorescence polarisation rises when a labelled molecule tumbles more slowly, as on binding a larger partner.

T1 sequence (O39929 1027-1207 A1087S/A1113S/R1118K/A1121T/S1127A/A1128S/I1140V/I1160T/R1176A/I1179L): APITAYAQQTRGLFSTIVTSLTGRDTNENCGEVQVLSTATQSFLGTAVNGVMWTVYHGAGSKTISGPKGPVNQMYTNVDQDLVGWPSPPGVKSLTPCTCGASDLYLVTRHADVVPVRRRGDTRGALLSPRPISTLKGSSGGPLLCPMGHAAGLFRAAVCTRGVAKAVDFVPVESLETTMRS

On to `CCCCCNC(=O)c1ncc(C(=O)NCCCCNC(=N)N)[nH]1` [MOC-23, N^5-(4-guanidinobutyl)-N^2-(n-pentyl)-1H-imidazole-2,5-dicarboxamide], for which the “inhibition of NS3 proteolytic activity” value against NS3 [1] is “abolished any proteolytic activity”. Further, the Kd (commonly the concentration at which binding is half-saturated) stood at 7.81 ± 1.01 µM on NS3 [2] (dissociation constant (reproducibility check), another batch of the expressed NS3 protein, same procedure) and 6.3 ± 0.3 µM on NS3 [2] (dissociation constant Kd (competition with FITC-NS4A), fluorescence anisotropy, NS3 1.8 μM, FITC-NS4A 0.1 μM, first batch of NS3). The “binding affinity (in words)” value at NS3 [2] is “highest affinity”.

Regarding `CCCCCCNC(=O)c1ncc(C(=O)NCCCCNC(=N)N)[nH]1` [MOC-24, N^5-(4-guanidinobutyl)-N^2-(n-hexyl)-1H-imidazole-2,5-dicarboxamide], the “binding affinity (in words)” value on NS3 [2] was “binding affinity at similar level”.
